Here are results for 22 compounds from patent publication US20220033397A1, “PHARMACEUTICAL COMPOUNDS AND THEIR USE AS INHIBITORS OF UBIQUITIN SPECIFIC PROTEASE 19 (USP19)” (ALMAC DISCOVERY LIMITED, priority 2018, published 2022).

Molecules are shown by their SMILES.

The IC50 is the midpoint of a concentration-inhibition curve.

The assay has as its target T1, Full-length USP19 (Homo sapiens, UniProt O94966).
T1 construct: Full-length USP19 was purchased from Boston Biochem (E-576); purchased Boston Biochem E-576
T1 sequence (O94966 1-1318): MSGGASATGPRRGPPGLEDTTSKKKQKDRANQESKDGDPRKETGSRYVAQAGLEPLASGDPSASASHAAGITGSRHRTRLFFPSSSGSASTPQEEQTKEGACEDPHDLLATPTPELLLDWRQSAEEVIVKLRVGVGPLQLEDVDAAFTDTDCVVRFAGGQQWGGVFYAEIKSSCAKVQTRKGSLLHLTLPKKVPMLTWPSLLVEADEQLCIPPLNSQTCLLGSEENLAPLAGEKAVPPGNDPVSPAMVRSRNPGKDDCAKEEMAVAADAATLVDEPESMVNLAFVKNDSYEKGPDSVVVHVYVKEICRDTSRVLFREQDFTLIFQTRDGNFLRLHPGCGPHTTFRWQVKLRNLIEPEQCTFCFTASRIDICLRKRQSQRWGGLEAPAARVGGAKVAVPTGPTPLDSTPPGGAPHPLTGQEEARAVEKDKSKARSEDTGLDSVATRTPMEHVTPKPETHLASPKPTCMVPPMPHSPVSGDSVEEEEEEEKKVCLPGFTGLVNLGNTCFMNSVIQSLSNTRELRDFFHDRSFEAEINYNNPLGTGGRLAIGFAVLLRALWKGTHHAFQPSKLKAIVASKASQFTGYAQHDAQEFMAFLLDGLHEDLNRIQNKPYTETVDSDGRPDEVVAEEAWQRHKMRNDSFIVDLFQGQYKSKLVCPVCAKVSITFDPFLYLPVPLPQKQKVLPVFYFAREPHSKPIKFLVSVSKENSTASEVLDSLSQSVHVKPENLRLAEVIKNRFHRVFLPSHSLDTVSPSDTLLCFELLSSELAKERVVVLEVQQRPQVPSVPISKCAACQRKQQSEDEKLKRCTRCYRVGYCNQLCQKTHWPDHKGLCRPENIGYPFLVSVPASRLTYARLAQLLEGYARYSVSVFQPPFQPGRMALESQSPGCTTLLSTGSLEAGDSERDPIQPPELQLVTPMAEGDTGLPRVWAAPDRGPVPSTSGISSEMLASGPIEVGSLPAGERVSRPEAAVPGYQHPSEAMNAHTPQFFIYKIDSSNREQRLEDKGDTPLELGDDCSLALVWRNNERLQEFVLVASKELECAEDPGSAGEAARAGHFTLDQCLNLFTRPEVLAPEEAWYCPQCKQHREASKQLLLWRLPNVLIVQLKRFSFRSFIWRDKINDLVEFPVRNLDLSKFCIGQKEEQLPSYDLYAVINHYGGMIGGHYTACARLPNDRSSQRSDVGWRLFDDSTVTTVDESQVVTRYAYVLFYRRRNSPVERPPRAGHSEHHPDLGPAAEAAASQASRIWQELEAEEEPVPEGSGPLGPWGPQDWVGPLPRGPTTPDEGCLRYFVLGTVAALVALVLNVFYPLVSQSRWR
The experiment in a line: USP19 fluorescence polarisation (FP) homogeneous assay with Ubiquitin-Lys-TAMRA substrate. It counts as biochemical. Conditions: 2.5 nM USP19, 30 min pre-incubation, average of at least two duplicate experiments. The procedure:
Unless otherwise stated, all other reagents were purchased from Sigma. Enzymatic reactions were conducted in black flat bottom polystyrene 384-well plates (Nunc) and 30 μL total volume. […] Inhibitors were stored as 10 mM DMSO stocks in an inert environment (low humidity, dark, low oxygen, room temperature) using the Storage Pod System and serial dilutions were prepared in buffer just prior to the assay (from 200 μM to 2 μM, 8-18 data point curve).
Following incubation at RT for 30 min, the enzymatic reactions were initiated by dispensing the Ub substrate (500 nM, 10 μL). FP was measured every 15 min over a period of 90 min (within the linear range of the assay) using a Synergy 4 plate reader (BioTek) exciting at 530 nm and measuring the amount of parallel and perpendicular light at 575 nm. The FP signal was subsequently normalised to the no compound control.
Regarding `O=C1COCCN1CC1(O)CCN(C(=O)N2CCNC[C@H]2c2ccccc2)CC12CCCC2` (stereo partly drawn) [Example 118, 4-((10-Hydroxy-7-((R)-2-phenylpiperazine-1-carbonyl)-7-azaspiro[4.5]decan-10-yl)methyl)morpholin-3-one], the IC50 lay within 500 to 5000 nM.

For the compound `C[C@H](CC1CCCCC1)C(=O)N1CCC(O)(Cn2cnc3cc(Cl)ccc3c2=O)C2(CCCC2)C1` (stereo partly drawn) [Example 129, 7-Chloro-3-((7-((R)-3-cyclohexyl-2-methylpropanoyl)-10-hydroxy-7-azaspiro[4.5]decan-10-yl)methyl)quinazolin-4(3H)-one], the IC50 lay in the range of 500 to 5000 nM.

`O=C(NCc1ccccc1)N1CCC(O)(Cn2cnc(N3CCOCC3)cc2=O)C2(CCCC2)C1` (stereo not shown) [Example 203, N-Benzyl-10-hydroxy-10-((4-morpholino-6-oxopyrimidin-1(6H)-yl)methyl)-7-azaspiro[4.5]decane-7-carboxamide]: the IC50 was in the range of 50000 to 250000 nM.

Take `N=S1(=O)CCN(C(=O)N2CC[C@@](O)(Cn3cnc(-c4ccccc4)cc3=O)C3(CCCC3)C2)[C@H](c2cc(F)ccc2F)C1` (mixture of isomers) [Example 395]: the IC50 is under 500 nM.

Turning to `C[C@H](CC1CCCCC1)C(=O)N1CCC(O)(Cn2cnc3cn(C)nc3c2=O)C2(CCCC2)C1` (stereo partly drawn) [Example 173, 6-((7-((R)-3-Cyclohexyl-2-methylpropanoyl)-10-hydroxy-7-azaspiro[4.5]decan-10-yl)methyl)-2-methyl-2,6-dihydro-7H-pyrazolo[4,3-d]pyrimidin-7-one], the IC50 was 5000 to 50000 nM.

As for `C[C@H](CC1CCCCC1)C(=O)N1CCC(O)(Cn2cc(C3CC3)ncc2=O)C(C)(C)C1` (stereo partly drawn) [Example 22, 1-((1-((R)-3-Cyclohexyl-2-methylpropanoyl)-4-hydroxy-3,3-dimethylpiperidin-4-yl)methyl)-5-cyclopropylpyrazin-2(1H)-one], the IC50 was in the range of 500 to 5000 nM.

Consider `CSc1cn(CC2(O)CCN(C(=O)[C@H](C)CC3CCCCC3)CC23CCCC3)c(=O)cc1-c1ccccc1` (stereo partly drawn) [Example 78, 1-((7-((R)-3-Cyclohexyl-2-methylpropanoyl)-10-hydroxy-7-azaspiro[4.5]decan-10-yl)methyl)-5-(methylthio)-4-phenylpyridin-2(1H)-one], for which the half-maximal inhibitory concentration (IC50) is under 500 nM.

In the case of `CN(C)c1cc(=O)n(C[C@]2(O)CCN(C(=O)N3CCNC[C@H]3c3ccccc3)CC23CCCC3)cn1` [Example 318, 6-(Dimethylamino)-3-(((S)-10-hydroxy-7-((R)-2-phenylpiperazine-1-carbonyl)-7-azaspiro[4.5]decan-10-yl)methyl)pyrimidin-4(3H)-one], the IC50 is under 500 nM.

For the compound `COc1ccccc1-c1cc(=O)n(C[C@]2(O)CCN(C(=O)N3CCNC[C@H]3c3ccccc3)CC23CCCC3)cn1` [Example 317, 3-(((S)-10-Hydroxy-7-((R)-2-phenylpiperazine-1-carbonyl)-7-azaspiro[4.5]decan-10-yl)methyl)-6-(2-methoxyphenyl)pyrimidin-4(3H)-one], the IC50 was under 500 nM.

Take `O=C(N1CC[C@@](O)(Cn2cnc(-c3ccccc3OC3CC3)cc2=O)C2(CCCC2)C1)N1CCNC[C@H]1c1ccccc1` [Example 365, 6-(2-Cyclo-propoxyphenyl)-3-(((S)-10-hydroxy-7-((R)-2-phenylpipera-zine-1-carbonyl)-7-azaspiro[4.5]decan-10-yl)methyl)pyrimi-din-4(3H)-one]: the IC50 is under 500 nM.

As to `C[C@H](CC1CCCCC1)C(=O)N1CCC(O)(Cn2cnc3[nH]ccc3c2=O)C2(CCCC2)C1` (stereo partly drawn) [Example 53, 3-((7-((R)-3-Cyclohexyl-2-methylpropanoyl)-10-hydroxy-7-azaspiro[4.5]decan-10-yl)methyl)-3,7-dihydro-4H-pyrrolo[2,3-d]pyrimidin-4-one], the IC50 was in the range of 5000 to 50000 nM.

In the case of `Cc1nc2ccccc2c(=O)n1CC1(O)CCN(C(=O)[C@H](C)CC2CCCCC2)CC12CCCC2` (stereo partly drawn) [Example 120, 3-((7-((R)-3-Cyclohexyl-2-methylpropanoyl)-10-hydroxy-7-azaspiro[4.5]decan-10-yl)methyl)-2-methylquinazolin-4(3H)-one], the IC50 was in the range of 500 to 5000 nM.

With `O=C(N[C@H](c1ccccc1)C(F)(F)F)N1CC[C@@](O)(Cn2cnc(-c3ccccc3)cc2=O)C2(CCCC2)C1` [Example 294, (S)-10-Hydroxy-10-((6-oxo-4-phenylpyrimidin-1(6H)-yl)methyl)-N—((R)-2,2,2-trifluoro-1-phenylethyl)-7-azaspiro[4.5]decane-7-carboxamide], the IC50 was under 500 nM.

As to `O=C(N1CCC(O)(Cn2ccc3ccncc3c2=O)C2(CCCC2)C1)N1CCOC[C@H]1c1ccccc1` (stereo partly drawn) [Example 166, 2-((10-Hydroxy-7-((R)-3-phenylmorpholine-4-carbonyl)-7-azaspiro[4.5]decan-10-yl)methyl)-2,7-naphthyridin-1(2H)-one], the IC50 was in the range of 500 to 5000 nM.

Regarding `O=C(N1CCC(O)(Cn2cnc(-c3ccccc3)cc2=O)C2(CCCC2)C1)N1CCOCC1C1CCC1` (stereo not shown) [Example 230, 3-((7-(3-Cyclobutylmorpholine-4-carbonyl)-10-hydroxy-7-azaspiro[4.5]decan-10-yl)methyl)-6-phenylpyrimidin-4(3H)-one], the IC50 fell in the range of 50000 to 250000 nM.

Turning to `O=C(N1CC[C@@](O)(Cn2cnc(-c3ccccc3)cc2=O)C2(CCCC2)C1)N1CCNC[C@@H]1c1ccccc1` [Example 210, 3-(((S)-10-Hydroxy-7-((S)-2-phenylpiperazine-1-carbonyl)-7-azaspiro[4.5]decan-10-yl)methyl)-6-phenylpyrimidin-4(3H)-one], the IC50 was under 500 nM.

With `C[C@H](CC1CCCCC1)C(=O)N1CCC(O)(Cn2cc(S(C)(=N)=O)c(Cl)cc2=O)C2(CCCC2)C1` (stereo partly drawn) [Example 71, 4-Chloro-1-((7-((R)-3-cyclohexyl-2-methylpropanoyl)-10-hydroxy-7-azaspiro[4.5]decan-10-yl)methyl)-5-(S-methylsulfonimidoyl)pyridin-2(1H)-one], the IC50 was under 500 nM.

As to `CN(C)C(=O)c1cn(CC2(O)CCN(C(=O)N(C)Cc3ccccc3)CC23CCCC3)c(=O)cc1-c1ccccc1` (stereo not shown) [Example 87, N-Benzyl-10-((5-(dimethylcarbamoyl)-2-oxo-4-phenylpyridin-1(2H)-yl)methyl)-10-hydroxy-N-methyl-7-azaspiro[4.5]decane-7-carboxamide], the IC50 was under 500 nM.

Take `O=C(N1CCC(O)(Cn2cnc(-c3ccccc3)cc2=O)CC1)N1CCNC[C@H]1c1ccccc1` [Example 297, (R)-3-((4-Hydroxy-1-(2-phenylpiperazine-1-carbonyl)piperidin-4-yl)methyl)-6-phenylpyrimidin-4(3H)-one]: the half-maximal inhibitory concentration (IC50) is under 500 nM.

On to `C[C@H](CC1CCCCC1)C(=O)N1CCC(O)(CN2CCOCC2=O)C2(CCCC2)C1` (stereo partly drawn) [Example 31, 4-((7-((R)-3-Cyclohexyl-2-methylpropanoyl)-10-hydroxy-7-azaspiro[4.5]decan-10-yl)methyl)morpholin-3-one], for which the IC50 was under 500 nM.

As for `CC1(C)CN(C(=O)N2CCNC[C@H]2c2ccccc2)CC[C@@]1(O)Cn1cnc(-c2ccccc2)cc1=O` [Example 322, 3-(((S)-4-Hydroxy-3,3-dimethyl-1-((R)-2-phenylpiperazine-1-carbonyl)piperidin-4-yl)methyl)-6-phenylpyrimidin-4(3H)-one], the IC50 was under 500 nM.

Take `Cn1cc(-c2cc(=O)n(C[C@]3(O)CCN(C(=O)N4CCNC[C@H]4c4ccccc4)CC34CCCC4)cn2)cn1` [Example 291, 3-(((S)-10-Hydroxy-7-((R)-2-phenylpiperazine-1-carbonyl)-7-azaspiro[4.5]decan-10-yl)methyl)-6-(1-methyl-1H-pyrazol-4-yl)pyrimidin-4(3H)-one]: the IC50 is under 500 nM.
